Reference: PubChem BioAssay AID248 (DTP/NCI, 2004)
Where “and” joins values, the source holds several entries; their conditions need not be identical. Equal entries are not always repeated. Inconclusive results and toxic doses are left out.

Test system: L1210 leukemia ip in BDF1 mice, survival T/C
Assay: NCI In Vivo Anticancer Drug Screen. Data for tumor model L1210 Leukemia (intraperitoneal) in B6D2F1 (BDF1) mice
Conditions: endpoint: mean survival time, higher = longer survival
Procedure, shortened: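 In this screen, tumor-bearing mice given compound are compared to those given vehicle, and their survival values are reported as a treated-to-control quotient.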

[1] = dose: 100.0 mg/kg/injection, schedule: Q01DX009 (ip), vehicle: saline with Tween-80
[2] = dose: 200.0 mg/kg/injection, schedule: Q01DX009 (ip), vehicle: saline with Tween-80
[3] = dose: 400.0 mg/kg/injection, schedule: Q01DX009 (ip), vehicle: saline with Tween-80
[4] = dose: 100.0 mg/kg/injection, schedule: Q04DX002 (ip), vehicle: saline with Tween-80
[5] = dose: 200.0 mg/kg/injection, schedule: Q04DX002 (ip), vehicle: saline with Tween-80
[6] = dose: 400.0 mg/kg/injection, schedule: Q04DX002 (ip), vehicle: saline with Tween-80
[7] = dose: 100.0 mg/kg/injection, schedule: Q01DX001 (ip), vehicle: carboxymethylcellulose (CMC)
[8] = dose: 200.0 mg/kg/injection, schedule: Q01DX001 (ip), vehicle: carboxymethylcellulose (CMC)
[9] = dose: 400.0 mg/kg/injection, schedule: Q01DX001 (ip), vehicle: carboxymethylcellulose (CMC)
[10] = dose: 100.0 mg/kg/injection, schedule: Q04DX003 (ip), vehicle: saline with Tween-80
[11] = dose: 200.0 mg/kg/injection, schedule: Q04DX003 (ip), vehicle: saline with Tween-80

Structure (SMILES): CC1=C/C(=N\N2CCCCCC2)C(C(O)(C(F)(F)F)C(F)(F)F)C(C)(C)C1 (centres undefined)
- T/C (dose: 50.0 mg/kg/injection, schedule: Q01DX009 (ip), vehicle: saline with Tween-80): 90 % of control
- T/C [1]: 96 % of control
- T/C [2]: 86 % of control
- T/C [3]: 88 % of control

Structure (SMILES): O=S(=O)(O)Cc1c(O)ccc2ccccc12
- T/C (dose: 25.0 mg/kg/injection, schedule: Q01DX009 (ip), vehicle: Klucel (hydroxypropylcellulose) (HPC)): 96 % of control
- T/C (dose: 50.0 mg/kg/injection, schedule: Q01DX009 (ip), vehicle: Klucel (hydroxypropylcellulose) (HPC)): 104 % of control
- T/C (dose: 100.0 mg/kg/injection, schedule: Q01DX009 (ip), vehicle: Klucel (hydroxypropylcellulose) (HPC)): 96 % of control
- T/C [4]: 100 % of control
- T/C [5]: 100 % of control
- T/C [6]: 103 % of control

Structure (SMILES): C[C@]12CCC(=O)C=C1CC[C@H]1[C@@H]3CCC(=O)O[C@@]3(C)CC(=O)[C@@]12F
- T/C [7]: 94 % of control
- T/C [8]: 100 % of control
- T/C [9]: 97 % of control

Structure (SMILES): O=NN1CCCNC1=O
- T/C (dose: 3.0 mg/kg/injection, schedule: Q01DX Z (ip), vehicle: carboxymethylcellulose (CMC)): 105 % of control
- T/C (dose: 6.0 mg/kg/injection, schedule: Q01DX Z (ip), vehicle: carboxymethylcellulose (CMC)): 107 % of control
- T/C (dose: 12.0 mg/kg/injection, schedule: Q01DX Z (ip), vehicle: carboxymethylcellulose (CMC)): 110 % of control
- T/C (dose: 50.0 mg/kg/injection, schedule: Q01DX Z (ip), vehicle: carboxymethylcellulose (CMC)): 181 % of control
- T/C (dose: 75.0 mg/kg/injection, schedule: Q01DX Z (ip), vehicle: carboxymethylcellulose (CMC)): 118 % of control
- T/C (dose: 100.0 mg/kg/injection, schedule: Q01DX Z (ip), vehicle: carboxymethylcellulose (CMC)): 87 % of control

Structure (SMILES): Cc1cc(N(C)C)ccc1N=Nc1ccccc1
- T/C (dose: 50.0 mg/kg/injection, schedule: Q01DX001 (ip), vehicle: carboxymethylcellulose (CMC)): 102 % of control
- T/C [7]: 102 % of control
- T/C [8]: 107 % of control
- T/C [9]: 96 % of control

Structure (SMILES): CC(C)C[CH2][Pb]([Cl])([CH2]CC(C)C)[CH2]CC(C)C
- T/C (dose: 0.03 mg/kg/injection, schedule: Q04DX002 (ip), vehicle: saline): 96 % of control
- T/C (dose: 0.05 mg/kg/injection, schedule: Q04DX002 (ip), vehicle: saline): 102 % of control
- T/C (dose: 0.1 mg/kg/injection, schedule: Q04DX002 (ip), vehicle: saline): 96 % of control
- T/C (dose: 0.2 mg/kg/injection, schedule: Q04DX002 (ip), vehicle: other): 111 % of control
- T/C (dose: 0.2 mg/kg/injection, schedule: Q04DX003 (ip), vehicle: other): 101 % of control
- T/C (dose: 0.78 mg/kg/injection, schedule: Q04DX003 (ip), vehicle: other): 95 % of control

Structure (SMILES): Fc1ccc2c(c1)CC(CBr)O2 (centres undefined)
- T/C (dose: 50.0 mg/kg/injection, schedule: Q01DX001 (ip), vehicle: saline): 100 % of control
- T/C (dose: 100.0 mg/kg/injection, schedule: Q01DX001 (ip), vehicle: saline): 105 % of control
- T/C (dose: 200.0 mg/kg/injection, schedule: Q01DX001 (ip), vehicle: saline): 103 % of control
- T/C (dose: 400.0 mg/kg/injection, schedule: Q01DX001 (ip), vehicle: saline): 103 % of control

Structure (SMILES): O=C(Nc1ccc(Cl)cc1[N+](=O)[O-])Oc1ccccc1C(=O)Nc1ccccc1
- T/C [1]: 92 % of control
- T/C [4]: 93 % of control and 95 % of control
- T/C [10]: 97 % of control
- T/C [2]: 91 % of control
- T/C [5]: 98 % of control and 88 % of control
- T/C [11]: 95 % of control
- T/C [3]: 89 % of control and 92 % of control
- T/C [6]: 97 % of control and 91 % of control
- T/C (dose: 400.0 mg/kg/injection, schedule: Q04DX003 (ip), vehicle: saline with Tween-80): 93 % of control

Structure (SMILES): Nc1cc(C(=O)Nc2cccc(C3=NCCN3)c2)ccc1C(=O)Nc1cccc(C2=NCCN2)c1
- T/C (dose: 7.5 mg/kg/injection, schedule: Q01DX Z (ip), vehicle: saline): 113 % of control
- T/C (dose: 10.0 mg/kg/injection, schedule: Q01DX Z (ip), vehicle: saline): 110 % of control

Structure (SMILES): O=C(O)c1c(Cl)[nH]c2ccccc12
- T/C (dose: 50.0 mg/kg/injection, schedule: Q04DX002 (ip), vehicle: saline with Tween-80): 101 % of control
- T/C [4]: 97 % of control
- T/C [5]: 89 % of control

Structure (SMILES): O=C(Nc1cc[n+](Cc2ccc(S(=O)(=O)F)cc2)cc1)c1ccccc1
- T/C [10]: 96 % of control
- T/C [11]: 98 % of control
